In US9114137B2, “Derivatives of pyrazolophenyl-benzenesulfonamide compounds and use thereof as antitumor agents” (Nerviano Medical Sciences S.R.L., priority 2010, dated 2015):
Where two headings read alike, the source gives them in different places.

How the values were obtained:
Assay type in all cases: cell-based
[1] = tested on: human melanoma cells A375 (with a mutated B-RAF); assay: In vitro cell proliferation assay, A375; details: A-375
Method: (§1) Exponentially growing human melanoma cells A375 (with a mutated B-RAF) and human melanoma cells Mewo (with wild-type B-Raf) were seeded and incubated at 37° C. in a humidified 5% CO2 atmosphere. After 24 hours, scalar doses of the compound were added to the medium and cells incubated for 72 hours. At the end of treatment, cells were washed and counted. Cell number was determined by a cellular adenosine triphosphate monitoring system. Cell proliferation was compared to control cells and the concentration inhibiting cell growth by 50% was calculated.

[2] = tested on: human melanoma cells Mewo (with wild-type B-Raf); assay: In vitro cell proliferation assay, Mewo; details: 72 hours incubation, cell number by ATP monitoring
Method: as §1

[3] = tested on: p-MAPK (T202/Y204) in A375 human melanoma cells, having a mutated B-RAF; assay: p-MAPK (T202/Y204) ArrayScan assay; details: A-375, 1.5 or 2 hours treatment, cytoplasmatic p-MAPK fluorescence, read-out: Array Scan A375 IC50
Method: A375 human melanoma cells, having a mutated B—RAF, were seeded in 384-well poly-lysine coated plates (Matrix) at a density of 1000 cells/well with appropriate medium supplemented with 10% FCS and incubated for 16-24 hours. Cells were treated for 1.5 or 2 hours with increasing doses of compounds (starting dose 10 μM, dilution factor 2.5). At the end of the treatment cells were fixed with p-formaldehyde 3.7% for 15-30 min, then washed twice with D-PBS (80 μl/well) and permeabilized with D-PBS containing 0.1% Triton X-100 and 1% BSA (Sigma-Aldrich) for 15 minutes at room temperature (staining solution). Anti-phospho-MAPK (T202/Y204) monoclonal antibody E10 (Cell Signaling, cat. #9106) diluted 1:100 was added in staining solution and incubated for 1 hour at 37° C. After removal of the primary antibody solution, the anti-mouse Cy™2-conjugated (Green) secondary antibody (Amersham) diluted 1:500 in staining solution containing 2 μg/ml DAPI was added. The plate was incubated for 1 hour at 37° C., washed twice and then red with Cellomics' ArrayScan VTI (4 fields/well, CytoNucTrans algorithm).
The parameter “MEAN_RingAvgIntenCh2,” which measures the mean cytoplasmatic fluorescence intensity associated to p-MAPK staining, is reported as the final result.

[4] = A375 human melanoma cells (mutated B-RAF), 72 hours incubation, cell number by ATP monitoring, read-out: Proliferation A375 IC50

SMILES | IC50 [1, 4] [nM] | IC50 ([1]; Homo sapiens, value quoted in text for the reference compound, no unit or cell line printed, read-out: antiproliferative activity) [nM] | IC50 [2] [nM] | IC50 [3] [nM]
CCn1cc(-c2ccncc2)c(-c2cccc(NS(=O)(=O)c3cc(F)ccc3F)c2F)n1 [Ref. cpd, N-{3-[1-ethyl-4-(pyridin-4-yl)-1H-pyrazol-3-yl]-2-fluorophenyl}-2,5-difluorobenzenesulfonamide, reference compound] | 48 | 84 | > 10000 | < 16
Nc1cc(-c2cn(C3CCOCC3)nc2-c2cccc(NS(=O)(=O)c3cc(F)ccc3F)c2F)ccn1 [Compound 14, N-{3-[4-(2-Amino-pyridin-4-yl)-1-(tetrahydro-pyran-4-yl)-1H-pyrazol-3-yl]-2-fluoro-phenyl}-2,5-difluoro-benzenesulfonamide] | 34 |  | > 10000 | < 16
Nc1cc(-c2cn(C3CCCC3)nc2-c2cccc(NS(=O)(=O)c3cc(F)ccc3F)c2F)ccn1 [Compound 17, N-{3-[4-(2-Amino-pyridin-4-yl)-1-cyclopentyl-1H-pyrazol-3-yl]-2-fluoro-phenyl}-2,5-difluoro-benzenesulfonamide] | 28 |  | > 10000 | < 16
Nc1nccc(-c2cn(CCF)nc2-c2cccc(NS(=O)(=O)c3cc(F)ccc3F)c2F)n1 [Compound 11, N-{3-[4-(2-Amino-pyrimidin-4-yl)-1-(2-fluoro-ethyl)-1H-pyrazol-3-yl]-2-fluoro-phenyl}-2,5-difluoro-benzenesulfonamide] | 17 |  | > 10000 | < 16
CC(C)n1cc(-c2ccnc(N)c2)c(-c2cccc(NS(=O)(=O)c3cc(F)ccc3F)c2F)n1 [Compound 12, N-{3-[4-(2-Amino-pyridin-4-yl)-1-isopropyl-1H-pyrazol-3-yl]-2-fluoro-phenyl}-2,5-difluoro-benzenesulfonamide] | 17 |  | > 10000 | < 16
Nc1cc(-c2cn(CCF)nc2-c2cccc(NS(=O)(=O)c3cc(F)ccc3F)c2F)ccn1 [Compound 13, N-{3-[4-(2-Amino-pyridin-4-yl)-1-(2-fluoro-ethyl)-1H-pyrazol-3-yl]-2-fluoro-phenyl}-2,5-difluoro-benzenesulfonamide] | < 16 |  | > 10000 | < 16
CC(C)C(=O)Nc1cc(-c2cn(C3CCOCC3)nc2-c2cccc(NS(=O)(=O)c3cc(F)ccc3F)c2F)ccn1 [Compound 30, N-{4-[3-(3-{[(2,5-difluorophenyl)sulfonyl]amino}-2-fluorophenyl)-1-(tetrahydro-2H-pyran-4-yl)-1H-pyrazol-4-yl]pyridin-2-yl}-2-methylpropanamide] | < 16 |  | > 10000 | < 16

Next, values leading:

IC50 [1, 4] [nM] | IC50 ([1]; Homo sapiens, value quoted in text for the reference compound, no unit or cell line printed, read-out: antiproliferative activity) [nM] | IC50 [2] [nM] | IC50 [3] [nM] | SMILES
< 16 |  | > 10000 | < 16 | CC(=O)Nc1cc(-c2cn(C3CCN(C)CC3)nc2-c2cccc(NS(=O)(=O)c3cc(F)ccc3F)c2F)ccn1 [Compound 31, N-{4-[3-(3-{[(2,5-difluorophenyl)sulfonyl]amino}-2-fluorophenyl)-1-(1-methylpiperidin-4-yl)-1H-pyrazol-4-yl]pyridin-2-yl}acetamide]
< 16 |  | > 10000 | < 16 | O=S(=O)(Nc1cccc(-c2nn(CCF)cc2-c2ccncc2)c1F)c1cc(F)ccc1F [Compound 7, 2,5-Difluoro-N-{2-fluoro-3-[1-(2-fluoro-ethyl)-4-pyridin-4-yl-1H-pyrazol-3-yl]-phenyl}-benzenesulfonamide]
< 16 |  | > 10000 | < 16 | O=S(=O)(Nc1cccc(-c2nn(C3CCC(F)(F)CC3)cc2-c2ccncc2)c1F)c1cc(F)ccc1F [Compound 25, N-{3-[1-(4,4-difluorocyclohexyl)-4-(pyridin-4-yl)-1H-pyrazol-3-yl]-2-fluorophenyl}-2,5-difluorobenzenesulfonamide]
12 |  | > 10000 | < 16 | O=S(=O)(Nc1cccc(-c2nn(C3CCN(C4CC4)CC3)cc2-c2ccncc2)c1F)c1cc(F)ccc1F [Compound 2, N-{3-[1-(1-Cyclopropyl-piperidin-4-yl)-4-pyridin-4-yl-1H-pyrazol-3-yl]-2-fluoro-phenyl}-2,5-difluoro-benzenesulfonamide]
8 |  | > 10000 | < 16 | CN1CCC(n2cc(-c3ccncc3)c(-c3cccc(NS(=O)(=O)c4cc(F)ccc4F)c3F)n2)CC1 [Compound 5, 2,5-Difluoro-N-{2-fluoro-3-[1-(1-methyl-piperidin-4-yl)-4-pyridin-4-yl-1H-pyrazol-3-yl]-phenyl}-benzenesulfonamide]
5 |  | > 10000 | < 16 | CC(C)n1cc(-c2ccncc2)c(-c2cccc(NS(=O)(=O)c3cc(F)ccc3F)c2F)n1 [Compound 9, 2,5-Difluoro-N-[2-fluoro-3-(1-isopropyl-4-pyridin-4-yl-1H-pyrazol-3-yl)-phenyl]-benzenesulfonamide]
7 |  | > 10000 | < 16 | CC(=O)Nc1cc(-c2cn(C3CCOCC3)nc2-c2cccc(NS(=O)(=O)c3cc(F)ccc3F)c2F)ccn1 [Compound 26, N-{4-[3-(3-{[(2,5-difluorophenyl)sulfonyl]amino}-2-fluorophenyl)-1-(tetrahydro-2H-pyran-4-yl)-1H-pyrazol-4-yl]pyridin-2-yl}acetamide]
3 |  | > 10000 | < 16 | CC(C)n1cc(-c2ccnc(N)n2)c(-c2cccc(NS(=O)(=O)c3cc(F)ccc3F)c2F)n1 [Compound 10, N-{3-[4-(2-Amino-pyrimidin-4-yl)-1-isopropyl-1H-pyrazol-3-yl]-2-fluoro-phenyl}-2,5-difluoro-benzenesulfonamide]
